Source: paper PMC5533769, “A cell-based high-throughput screening assay system for inhibitor compounds of antigen presentation by HLA class II molecule” (Scientific Reports, 2017)

Experiments:
[1] = system: DR15-expressing 3T3 cells; details: crystal violet (A550); 1 h with CLIP, then MBP83-99 6 h
DR1 (DRB1*01:01) = target: T1, DR1 (DRB1*01:01) (Homo sapiens, UniProt P01903+P01911, A100R/D57E/F55L/F60I/F76Y/I96L/L162R/M171V/P40L/Q125E/R42F/V115G/Y59C); test: 96-well competition assay: inhibition of MBP83-99 loading to DR1-expressing 3T3 cells; assay type: binding
T1 construct: The open reading frame for DRA or DRB1 were flanked with Xho 1 and EcoR1 sites; expressed in transfected cells

DR15 (DRB1*15:01) = target: T2, DR15 (DRB1*15:01) (Homo sapiens, UniProt P01903+P01911, OTHER:DRA*01:01ANDEACHDRB1VECTORSWEREINTRODUCEDINTOTHECELLSAT1:1RATIO/OTHER:MBP83-99TODR15(DRB1*15:01)); test: 96-well competition assay: inhibition of MBP83-99 loading to DR15-expressing 3T3 cells; assay type: binding
T2 construct: The open reading frame for DRA or DRB1 were flanked with Xho 1 and EcoR1 sites; expressed in transfected cells

[2] = system: HLA-DR (DRB1*01:01, DRB1*04:05, DRB1*09:01, DRB1*15:01); test: FACS binding of biotinylated peptide to panel of HLA-DR on stable 3T3 cells; set-up: species or system human; details: SA-PE, […], biotinylated peptide 30 µM overnight
[3] = system: HLA-DR (DRB1*01:01, DRB1*04:05, DRB1*09:01, DRB1*15:01); test: FACS binding of biotinylated peptide to panel of HLA-DR on HEK293T cells; set-up: species or system human
[4] = system: DR1 (DRB1*01:01) and DR4 (DRB1*04:01); details: HLA-DRB1*01:01 and DRB1*04:01; ref [4], [5]; cited from earlier work
Source text: An array of autoimmune diseases, including rheumatoid arthritis (RA) and multiple sclerosis (MS), are associated with particular alleles of HLA-DRB1[1], [3]. […] On ...

[5] = target: HLA-DR15 (DRA*01:01/DRB1*15:01) (Homo sapiens, UniProt P01903+P01911); test: FACS binding of biotinylated peptide to HLA-DR15 on HEK293T cells; details: SA-PE, HEK293T transiently expressing DRA*01:01 + DRB1*15:01, biotinylated peptide 30 µM, 5 h (>5 h), 3 to 6 independent experiments
[6] = target: T3, HLA-DR1 (DRA*01:01/DRB1*01:01) (Homo sapiens, UniProt P01903+P01911, A100R/D57E/F55L/F60I/F76Y/I96L/L162R/M171V/P40L/Q125E/R42F/V115G/Y59C); test: FACS binding of biotinylated peptide to HLA-DR1 on HEK293T cells; details: SA-PE, biotinylated peptide 30 µM, >5 h, 3 to 6 independent experiments
[7] = target: T3, HLA-DR1 (DRA*01:01/DRB1*01:01); test: FACS binding of biotinylated peptide to HLA-DR1 on stable 3T3 cells; details: SA-PE, stable 3T3, DRA*01:01 + DRB1*01:01, biotinylated peptide 30 µM overnight

Row | Molecule | Cell number after binding assay (cytotoxicity), DR15 cells [1] | IC50 (DR1 (DRB1*01:01)) | Kd (DR1 (DRB1*01:01)) | Cell number after binding assay (cytotoxicity), DR1 cells (DR1-expressing 3T3 cells) | IC50 (DR15 (DRB1*15:01)) | Kd (DR15 (DRB1*15:01)) | Peptide binding across HLA-DR genotypes on 3T3 [2] | Binding MFI compared with MBP83-99 [3] | Presentation by DR1 and DR4 [4] | Peptide binding (MFI), HLA-DR15 [5] | Peptide binding (MFI), HLA-DR1 [6] | Peptide binding, DR1 on 3T3 [7]
1 | CSCC[C@H](NC(=O)[C@H](CCCNC(=N)N)NC(=O)[C@H](CCSC)NC(=O)[C@H](CCCCN)NC(=O)[C@H](CO)NC(=O)[C@@H](NC(=O)[C@@H]1CCCN1C(=O)[C@@H](N)CCCCN)C(C)C)C(=O)N[C@@H](C)C(=O)N[C@H](C(=O)N1CCC[C@H]1C(=O)N[C@@H](CC(C)C)C(=O)N[C@@H](CC(C)C)C(=O)N[C@@H](CCSC)C(=O)N[C@@H](CCC(N)=O)C(=O)N[C@@H](C)C(=O)N[C@@H](CC(C)C)C(=O)O)[C@@H](C)O [CLIP102-118, Class II-associated invariant chain peptide (CLIP) 102–118] | no difference in the cell number | 8 µM | 5 µM | no difference in the cell number | 9 µM | 3 µM |  |  |  |  |  | 
2 | GIAGFKGEQGPKGEP [CII263-272, type II collagen (CII) 263–272, biotinylated type II collagen peptide] |  |  |  |  |  |  | not at all to other DR-expressing cells | far less than that for MBP83-99 binding | present peptide from type II collagen | Significant binding | Significant binding | very weakly
